Source: the supplement of paper PMC12205070

Assays:
Test in all cases: normalised number of viable cells after treatment (fraction of control); higher = more viable cells (less drug effect)
[1] = system: P8 Relapse (T-ALL xenograft cells from relapse)
Procedure: (§1)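 T-ALL PDX-derived cells (initial diagnosis or relapse samples of individual patients) co-cultured on hTERT-immortalized bone marrow MSCs in 384-well plates were treated with Cytarabine, Venetoclax, S-63845, A1331852 or FX1 (0.1 nM to 10,000 nM) for 72 h.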

[2] = system: P8 Initial (T-ALL xenograft cells from diagnosis)
Procedure: as §1

[3] = system: P2 Initial (T-ALL xenograft cells from diagnosis)
Procedure: as §1

[4] = system: P12 Initial (T-ALL xenograft cells from diagnosis)
Procedure: as §1

[5] = system: P6 Relapse (T-ALL xenograft cells from relapse)
Procedure: as §1

[6] = system: P10 Initial (T-ALL xenograft cells from diagnosis)
Procedure: as §1

[7] = system: P10 Relapse (T-ALL xenograft cells from relapse)
Procedure: as §1

[8] = system: P6 Initial (T-ALL xenograft cells from diagnosis)
Procedure: as §1

[9] = system: P3 Relapse (T-ALL xenograft cells from relapse)
Procedure: as §1

[10] = system: P1 Initial (T-ALL xenograft cells from diagnosis)
Procedure: as §1

[11] = system: P3 Initial (T-ALL xenograft cells from diagnosis)
Procedure: as §1

[12] = system: P2 Relapse (T-ALL xenograft cells from relapse)
Procedure: as §1

[13] = system: P12 Relapse (T-ALL xenograft cells from relapse)
Procedure: as §1

[14] = system: P1 Relapse (T-ALL xenograft cells from relapse)
Procedure: as §1

Nc1ccn([C@@H]2O[C@H](CO)[C@@H](O)[C@@H]2O)c(=O)n1 [Cytarabine]
Details	normalised number of viable cells
[1], 0.998752 nM	1.551
[1], 9.98752 nM	1.57
[1], 99.8752 nM	0.744
[1], 998.752 nM	0.821
[1], 9987.52 nM	0.599
[2], 0.998752 nM	1.67
[2], 9.98752 nM	1.54
[2], 99.8752 nM	0.489
[2], 998.752 nM	0.4715
[2], 9987.52 nM	0.577
[3], 0.998752 nM	1.83
[3], 9.98752 nM	1.97
[3], 99.8752 nM	0.894
[3], 998.752 nM	0.683
[3], 9987.52 nM	0.631
[4], 0.998752 nM	1.33
[4], 9.98752 nM	1.2
[4], 99.8752 nM	0.327
[4], 998.752 nM	0.313
[4], 9987.52 nM	0.593
[5], 0.998752 nM	0.745
[5], 9.98752 nM	1.28
[5], 99.8752 nM	1.18
[5], 998.752 nM	0.902
[5], 9987.52 nM	0.852
[6], 0.998752 nM	1.45
[6], 9.98752 nM	1.4
[6], 99.8752 nM	0.472
[6], 998.752 nM	0.426
[6], 9987.52 nM	0.427
[7], 0.998752 nM	1.08
[7], 9.98752 nM	1
[7], 99.8752 nM	0.737
[7], 998.752 nM	0.712
[7], 9987.52 nM	0.679
[8], 0.998752 nM	0.95
[8], 9.98752 nM	0.6575
[8], 99.8752 nM	0.454
[8], 998.752 nM	0.248
[8], 9987.52 nM	0.239
[9], 0.998752 nM	1.14
[9], 9.98752 nM	0.684
[9], 99.8752 nM	0.464
[9], 998.752 nM	0.306
[9], 9987.52 nM	0.143
[10], 0.125 nM	0.988
[10], 1 nM	0.83
[10], 12.5 nM	0.396
[10], 100 nM	0.245
[10], 1250 nM	0.23
[10], 10000 nM	0.0865
[11], 0.998752 nM	1.04
[11], 9.98752 nM	0.855
[11], 99.8752 nM	0.14
[11], 998.752 nM	0.0925
[11], 9987.52 nM	0.0805
[12], 0.998752 nM	0.981
[12], 9.98752 nM	0.99
[12], 99.8752 nM	0.973
[12], 998.752 nM	0.804
[12], 9987.52 nM	0.61
[13], 0.998752 nM	4.13
[13], 9.98752 nM	5.01
[13], 99.8752 nM	1.49
[13], 998.752 nM	0.76
[13], 9987.52 nM	0.446
[14], 0.125 nM	0.84
[14], 1 nM	0.683
[14], 12.5 nM	0.426
[14], 100 nM	0.354
[14], 1250 nM	0.235
[14], 10000 nM	0.224

CC1(C)CCC(CN2CCN(c3ccc(C(=O)NS(=O)(=O)c4ccc(NCC5CCOCC5)c([N+](=O)[O-])c4)c(Oc4cnc5[nH]ccc5c4)c3)CC2)=C(c2ccc(Cl)cc2)C1 [Venetoclax]
Details	normalised number of viable cells
[1], 0.998752 nM	1.21
[1], 9.98752 nM	1.24
[1], 99.8752 nM	1.02
[1], 998.752 nM	0.744
[1], 9987.52 nM	0.732
[2], 0.998752 nM	2.58
[2], 9.98752 nM	2.56
[2], 99.8752 nM	2.09
[2], 998.752 nM	1.89
[2], 9987.52 nM	2.3
[3], 0.998752 nM	1.58
[3], 9.98752 nM	1.09
[3], 99.8752 nM	0.725
[3], 998.752 nM	0.56
[3], 9987.52 nM	0.514
[4], 0.998752 nM	1.15
[4], 9.98752 nM	1.21
[4], 99.8752 nM	0.923
[4], 998.752 nM	0.978
[4], 9987.52 nM	0.0715
[5], 0.998752 nM	1.31
[5], 9.98752 nM	1.12
[5], 99.8752 nM	0.554
[5], 998.752 nM	0.584
[5], 9987.52 nM	0.169
[6], 0.998752 nM	1.39
[6], 9.98752 nM	1.41
[6], 99.8752 nM	0.954
[6], 998.752 nM	0.665
[6], 9987.52 nM	0.21
[7], 0.998752 nM	0.866
[7], 9.98752 nM	1.17
[7], 99.8752 nM	0.717
[7], 998.752 nM	0.313
[7], 9987.52 nM	0.13
[8], 0.998752 nM	1.17
[8], 9.98752 nM	0.743
[8], 99.8752 nM	0.5415
[8], 998.752 nM	0.355
[8], 9987.52 nM	0.269
[9], 0.998752 nM	1.18
[9], 9.98752 nM	1.15
[9], 99.8752 nM	1.104
[9], 998.752 nM	0.922
[9], 9987.52 nM	0.072
[10], 0.125 nM	1
[10], 1 nM	0.841
[10], 12.5 nM	0.423
[10], 100 nM	0.345
[10], 1250 nM	0.259
[10], 10000 nM	0.0865
[11], 0.998752 nM	0.948
[11], 9.98752 nM	0.925
[11], 99.8752 nM	0.814
[11], 998.752 nM	0.821
[11], 9987.52 nM	0.139
[12], 0.998752 nM	1.16
[12], 9.98752 nM	1.37
[12], 99.8752 nM	1.19
[12], 998.752 nM	0.933
[12], 9987.52 nM	0.412
[13], 0.998752 nM	5.7
[13], 9.98752 nM	4.1
[13], 99.8752 nM	4.2
[13], 998.752 nM	4.43
[13], 9987.52 nM	0.845
[14], 0.125 nM	1.02
[14], 1 nM	0.911
[14], 12.5 nM	0.504
[14], 100 nM	0.781
[14], 1250 nM	0.352
[14], 10000 nM	0.694
